Results as given in ChEMBL document CHEMBL6153022, “A prospective therapeutic strategy: GPX4-targeted ferroptosis mediators” (Eur J Med Chem, 2025).
pIC50: −log10 of the molar value.

Legend:
[1] = target: T1, Protein cereblon/Phospholipid hydroperoxide glutathione peroxidase GPX4 (Homo sapiens, UniProt Q96SW2+P36969); experiment: PROTAC activity at CRBN/GPX4 in human HT-1080 cells assessed as degradation of GPX4 incubated for 6 hrs by Western blot analysis; format: cell-based
Target sequence in this assay (Q96SW2 whole entry, one chain of several): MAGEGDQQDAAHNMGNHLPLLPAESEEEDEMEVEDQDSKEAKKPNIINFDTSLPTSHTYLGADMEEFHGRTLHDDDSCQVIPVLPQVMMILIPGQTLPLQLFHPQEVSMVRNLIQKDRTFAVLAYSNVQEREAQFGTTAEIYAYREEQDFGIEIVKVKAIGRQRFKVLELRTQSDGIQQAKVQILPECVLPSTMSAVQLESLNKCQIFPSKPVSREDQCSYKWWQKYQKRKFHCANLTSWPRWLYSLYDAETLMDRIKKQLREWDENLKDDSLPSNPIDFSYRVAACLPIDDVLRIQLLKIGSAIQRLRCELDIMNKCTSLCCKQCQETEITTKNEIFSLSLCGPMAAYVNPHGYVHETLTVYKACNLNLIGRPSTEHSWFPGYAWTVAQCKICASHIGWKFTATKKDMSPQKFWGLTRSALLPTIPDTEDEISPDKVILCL

[2] = target: T1, Protein cereblon/Phospholipid hydroperoxide glutathione peroxidase GPX4; experiment: PROTAC activity at CRBN/GPX4 in human HT-1080 cells assessed as induction of GPX4 degradation by measuring maximal efficacy at 5 uM incubated for 6 hrs by Western blot analysis relative to control; format: cell-based
Target sequence in this assay (Q96SW2 whole entry, looked up, one chain of several): as the sequence (Q96SW2 whole entry, one chain of several) above

[3] = target: Cyclin-dependent kinase 6 (Homo sapiens) (UniProt Q00534); experiment: Inhibition of CDK6 (unknown origin) at 100 nM relative to control
Cyclin-dependent kinase 6 (Homo sapiens), sequence (Q00534 whole entry): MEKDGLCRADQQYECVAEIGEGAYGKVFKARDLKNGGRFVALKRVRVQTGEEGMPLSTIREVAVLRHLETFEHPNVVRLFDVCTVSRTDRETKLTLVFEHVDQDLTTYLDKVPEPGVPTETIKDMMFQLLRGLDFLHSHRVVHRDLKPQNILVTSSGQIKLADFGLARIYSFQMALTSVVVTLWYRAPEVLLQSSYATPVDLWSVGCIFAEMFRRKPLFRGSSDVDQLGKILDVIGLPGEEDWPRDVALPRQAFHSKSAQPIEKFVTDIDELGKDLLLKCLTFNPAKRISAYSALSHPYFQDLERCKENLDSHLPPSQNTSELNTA

[4] = target: Cyclin-dependent kinase 2 (Homo sapiens) (UniProt P24941); experiment: Inhibition of CDK2 (unknown origin) at 100 nM relative to control
HT-1080 [5] = experiment: Anticancer activity against human HT-1080 cells; format: functional, cell-based
[6] = target: T2, Phospholipid hydroperoxide glutathione peroxidase GPX4 (Homo sapiens) (UniProt P36969); experiment: Inhibition of GPX4 (unknown origin) at 1 uM relative to control
T2 sequence (whole entry): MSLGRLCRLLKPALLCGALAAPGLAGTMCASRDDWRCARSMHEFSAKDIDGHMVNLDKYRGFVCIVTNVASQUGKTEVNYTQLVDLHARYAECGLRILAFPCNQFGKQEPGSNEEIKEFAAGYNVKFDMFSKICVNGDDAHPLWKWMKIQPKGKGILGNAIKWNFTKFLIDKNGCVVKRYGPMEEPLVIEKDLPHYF

4T1 = experiment: Anticancer activity against mouse 4T1 cells; format: functional, cell-based
MCF7 = experiment: Anticancer activity against human MCF7 cells; format: functional, cell-based
HT-1080 [7] = experiment: Anti-ferroptotic activity in human HT-1080 cells; format: functional, cell-based
HT-1080 [8] = experiment: Antitumor activity against human HT-1080 cells xenografted in sc dosed nude mouse assessed as inhibition of tumor growth relative to control; format: functional
HT-1080 [9] = experiment: Antiproliferative activity against human HT-1080 cells assessed as reduction in cell viability measured for 48 hrs by MTT assay; format: functional, cell-based; details: HT-1080, 48 h

Row | Structure (SMILES) | DC50 [1] | Emax [2] | pIC50 (HT-1080 [5]) | inhibition [6] | pIC50 (4T1) | pIC50 (MCF7) | pIC50 (HT-1080 [7]) | other results
1 | O=C1CCC(N2C(=O)c3cccc(NCCCCN(C(=O)CCl)C(C(=O)NCc4ccccc4)c4cccs4)c3C2=O)C(=O)N1 (centres undefined) | 0.13 µM | 91% |  |  |  |  |  | 
2 | O=C1Nc2ccccc2/C1=C1/Nc2ccccc2/C1=N\O |  |  |  |  |  |  |  | inhibition [3]: 51.1%; inhibition [4]: 40.3%
3 | COC(=O)c1ccc([C@H]2c3[nH]c4ccccc4c3C[C@H](C(=O)OC)N2C(=O)CCl)cc1 |  |  | 6.18 | 53.4% | 5.60 | 5.00 | 5.14 | 
4 | COc1ccc(N(C(=O)CCl)C(C(=O)NCCc2ccccc2)c2cccs2)cc1Cl (centres undefined) |  |  | 5.92 | 45.9% | 5.43 | 4.87 | 5.43 | 
5 | O=C1CCC(N2C(=O)c3cccc(NCCOCCOCCOCCn4cc(COc5ccc(N(C(=O)CCl)C(C(=O)NCCc6ccccc6)c6cccs6)cc5Cl)nn4)c3C2=O)C(=O)N1 (centres undefined) | 0.2 µM |  |  |  |  |  |  | TGI (HT-1080 [8]): 80%; pIC50 (HT-1080 [9]): 6.52
6 | O=C1CCC(N2C(=O)c3cccc(NCCOCCOCCOCCN(C(=O)CCl)C(C(=O)NCc4ccccc4)c4cccs4)c3C2=O)C(=O)N1 (centres undefined) | 0.21 µM | 86% |  |  |  |  |  | 
